Assay results taken from the supplement of paper PMC10307832.

Assays:
Test in all cases: relative viability (nuclei count vs DMSO), 5 days (fraction); higher = more cells survive
[1] = tested on: ABC-1
Procedure, shortened: (§1)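 Medians of duplicate plates are given as relative viability. That measure is the nuclei count in treated wells divided by the count in vehicle wells. Counts were taken on 4× images of lung cancer cell lines in 1536-well plates, 5 days after pin-tool dosing the day after seeding with one drug alone or a fixed anchor-drug dose plus five library-drug doses (not always all listed) in √10 steps.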

[2] = tested on: COR-L23
Procedure, shortened: as §1

[3] = tested on: EPLC-272H
Procedure, shortened: as §1

[4] = tested on: HARA
Procedure, shortened: as §1

[5] = tested on: HCC-15
Procedure, shortened: as §1

[6] = tested on: HCC-44
Procedure, shortened: as §1

[7] = tested on: HOP-62
Procedure, shortened: as §1

[8] = tested on: LC-2-ad
Procedure, shortened: as §1

[9] = tested on: LU99A
Procedure, shortened: as §1

[10] = tested on: NCI-H1355
Procedure, shortened: as §1

[11] = tested on: NCI-H1651
Procedure, shortened: as §1

[12] = tested on: NCI-H1915
Procedure, shortened: as §1

[13] = tested on: NCI-H1993
Procedure, shortened: as §1

[14] = tested on: NCI-H2023
Procedure, shortened: as §1

[15] = tested on: NCI-H2085
Procedure, shortened: as §1

[16] = tested on: NCI-H2126
Procedure, shortened: as §1

[17] = tested on: NCI-H2347
Procedure, shortened: as §1

[18] = tested on: NCI-H650
Procedure, shortened: as §1

[19] = tested on: NCI-H838
Procedure, shortened: as §1

[20] = tested on: PC-14
Procedure, shortened: as §1

[21] = tested on: SW 1573
Procedure, shortened: as §1

[22] = tested on: UMC-11
Procedure, shortened: as §1

Nc1ccn([C@@H]2O[C@H](CO)[C@@H](O)[C@@H]2O)c(=O)n1 [Cytarabine] + CCNC(=O)c1noc(-c2cc(C(C)C)c(O)cc2O)c1-c1ccc(CN2CCOCC2)cc1 [Luminespib] (partner 0.01 µM)
relative viability ([1]; first compound 0.005 µM): 0.732
relative viability ([1]; first compound 0.01581 µM): 0.624
relative viability ([1]; first compound 0.05 µM): 0.712
relative viability ([1]; first compound 0.1581 µM): 0.381
relative viability ([1]; first compound 0.5 µM): 0.281
relative viability ([2]; first compound 0.005 µM): 0.481
relative viability ([2]; first compound 0.01581 µM): 0.789
relative viability ([2]; first compound 0.05 µM): 0.628
relative viability ([2]; first compound 0.1581 µM): 0.257
relative viability ([2]; first compound 0.5 µM): 0.163
relative viability ([3]; first compound 0.005 µM): 0.433
relative viability ([3]; first compound 0.01581 µM): 0.241
relative viability ([3]; first compound 0.05 µM): 0.194
relative viability ([3]; first compound 0.1581 µM): 0.228
relative viability ([3]; first compound 0.5 µM): 0.243
relative viability ([4]; first compound 0.005 µM): 0.898
relative viability ([4]; first compound 0.01581 µM): 0.303
relative viability ([4]; first compound 0.05 µM): 0.27
relative viability ([4]; first compound 0.1581 µM): 0.1
relative viability ([4]; first compound 0.5 µM): 0.0906
relative viability ([5]; first compound 0.005 µM): 0.328
relative viability ([5]; first compound 0.01581 µM): 0.416
relative viability ([5]; first compound 0.05 µM): 0.354
relative viability ([5]; first compound 0.1581 µM): 0.428
relative viability ([5]; first compound 0.5 µM): 0.267
relative viability ([6]; first compound 0.005 µM): 0.949
relative viability ([6]; first compound 0.01581 µM): 1.05
relative viability ([6]; first compound 0.05 µM): 0.403
relative viability ([6]; first compound 0.1581 µM): 0.257
relative viability ([6]; first compound 0.5 µM): 0.185
relative viability ([7]; first compound 0.005 µM): 0.679
relative viability ([7]; first compound 0.01581 µM): 0.49
relative viability ([7]; first compound 0.05 µM): 0.285
relative viability ([7]; first compound 0.1581 µM): 0.135
relative viability ([7]; first compound 0.5 µM): 0.135
relative viability ([8]; first compound 0.005 µM): 0.892
relative viability ([8]; first compound 0.01581 µM): 0.994
relative viability ([8]; first compound 0.05 µM): 0.768
relative viability ([8]; first compound 0.1581 µM): 0.636
relative viability ([8]; first compound 0.5 µM): 0.478
relative viability ([9]; first compound 0.005 µM): 0.209
relative viability ([9]; first compound 0.01581 µM): 0.199
relative viability ([9]; first compound 0.05 µM): 0.217
relative viability ([9]; first compound 0.1581 µM): 0.167
relative viability ([9]; first compound 0.5 µM): 0.201
relative viability ([10]; first compound 0.005 µM): 0.612
relative viability ([10]; first compound 0.01581 µM): 0.734
relative viability ([10]; first compound 0.05 µM): 0.623
relative viability ([10]; first compound 0.1581 µM): 0.344
relative viability ([10]; first compound 0.5 µM): 0.402
relative viability ([11]; first compound 0.005 µM): 0.751
relative viability ([11]; first compound 0.01581 µM): 1.02
relative viability ([11]; first compound 0.05 µM): 0.954
relative viability ([11]; first compound 0.1581 µM): 0.705
relative viability ([11]; first compound 0.5 µM): 0.262
relative viability ([12]; first compound 0.005 µM): 0.622
relative viability ([12]; first compound 0.01581 µM): 0.773
relative viability ([12]; first compound 0.05 µM): 0.871
relative viability ([12]; first compound 0.1581 µM): 0.486
relative viability ([12]; first compound 0.5 µM): 0.435
relative viability ([13]; first compound 0.005 µM): 0.964
relative viability ([13]; first compound 0.01581 µM): 0.706
relative viability ([13]; first compound 0.05 µM): 0.695
relative viability ([13]; first compound 0.1581 µM): 0.512
relative viability ([13]; first compound 0.5 µM): 0.525
relative viability ([14]; first compound 0.005 µM): 0.604
relative viability ([14]; first compound 0.01581 µM): 0.235
relative viability ([14]; first compound 0.05 µM): 0.19
relative viability ([14]; first compound 0.1581 µM): 0.0889
relative viability ([14]; first compound 0.5 µM): 0.0897
relative viability ([15]; first compound 0.005 µM): 0.426
relative viability ([15]; first compound 0.01581 µM): 0.459
relative viability ([15]; first compound 0.05 µM): 0.455
relative viability ([15]; first compound 0.1581 µM): 0.415
relative viability ([15]; first compound 0.5 µM): 0.339
relative viability ([16]; first compound 0.005 µM): 0.789
relative viability ([16]; first compound 0.01581 µM): 0.86
relative viability ([16]; first compound 0.05 µM): 0.671
relative viability ([16]; first compound 0.1581 µM): 0.53
relative viability ([16]; first compound 0.5 µM): 0.427
relative viability ([17]; first compound 0.005 µM): 0.284
relative viability ([17]; first compound 0.01581 µM): 0.402
relative viability ([17]; first compound 0.05 µM): 0.39
relative viability ([17]; first compound 0.1581 µM): 0.255
relative viability ([17]; first compound 0.5 µM): 0.411
relative viability ([18]; first compound 0.005 µM): 0.606
relative viability ([18]; first compound 0.01581 µM): 0.485
relative viability ([18]; first compound 0.05 µM): 0.253
relative viability ([18]; first compound 0.1581 µM): 0.187
relative viability ([18]; first compound 0.5 µM): 0.17
relative viability ([19]; first compound 0.005 µM): 0.234
relative viability ([19]; first compound 0.01581 µM): 0.3
relative viability ([19]; first compound 0.05 µM): 0.303
relative viability ([19]; first compound 0.1581 µM): 0.186
relative viability ([19]; first compound 0.5 µM): 0.167
relative viability ([20]; first compound 0.005 µM): 0.172
relative viability ([20]; first compound 0.01581 µM): 0.133
relative viability ([20]; first compound 0.05 µM): 0.131
relative viability ([20]; first compound 0.1581 µM): 0.131
relative viability ([20]; first compound 0.5 µM): 0.0979
relative viability ([21]; first compound 0.005 µM): 0.375
relative viability ([21]; first compound 0.01581 µM): 0.228
relative viability ([21]; first compound 0.05 µM): 0.285
relative viability ([21]; first compound 0.1581 µM): 0.164
relative viability ([21]; first compound 0.5 µM): 0.0905
relative viability ([22]; first compound 0.005 µM): 0.792
relative viability ([22]; first compound 0.01581 µM): 0.591
relative viability ([22]; first compound 0.05 µM): 0.495
relative viability ([22]; first compound 0.1581 µM): 0.357
relative viability ([22]; first compound 0.5 µM): 0.225
